Experimental findings from patent US20250368623A1, “PYRIDAZINONE-DERIVED COMPOUNDS FOR THE MODULATION OF MYC AND FOR MEDICAL USES” (GENETIC INTELLIGENCE, INC, priority 2022, published 2025) are described below.

Assay type in all cases: cell-based
Test [1] concerns A549. Description: CCK-8 cell viability assay, A549. To be noted: Homo sapiens; CCK-8, A549, 2-day or 3-day incubation, cytotoxic effect. For orientation: Tetrazolium assays rely on reduction of a dye to a coloured formazan, in cell work by metabolically active cells.
Protocol: The effect of test compounds on cell viability is determined using the CCK-8 assay kit (Dojindo CK04-1000) according to the following protocol. The human cancer cell lines (e.g., A549, HepG2, JeKo-1, MDA-MB-231, etc.) and non-cancer human cell lines (e.g., HEK-293, HaCaT, etc.), are seeded at 20,000 cells per well in a 96-well plate. After 1 day, the cells are treated with test compounds at various final concentrations (e.g., 10 nM, 31.6 nM, 100 nM, 316 nM, 1 μM, 3.16 μM, 10 μM, 20 μM, etc.). After a 2-day or 3-day incubation period, 10 μL of CCK-8 solution, which contains the WST-8 dye, is added to each well according to the kit manufacturer's protocol. After incubation for 1-4 hours, the absorbance at 450 nm is measured using a microplate reader. The absorbance at 450 nm measures the amount of WST-8 that is reduced to WST-8 formazan by cellular dehydrogenases, which is directly proportional to the number of living cells. The cytotoxic effect of test compounds at different concentrations is calculated by subtracting from 1 the ratio of absorbance of the compound-treated sample at 450 nm to that of the no-compound, solvent only (DMSO)-treated sample. […]
In test [2] the test system is HepG2. Description: CCK-8 cell viability assay, HepG2. The note with it: Homo sapiens; CCK-8, HepG2, 2-day or 3-day incubation, cytotoxic effect.
Protocol: The effect of test compounds on cell viability is determined using the CCK-8 assay kit (Dojindo CK04-1000) according to the following protocol. The human cancer cell lines (e.g., A549, HepG2, JeKo-1, MDA-MB-231, etc.) and non-cancer human cell lines (e.g., HEK-293, HaCaT, etc.), are seeded at 20,000 cells per well in a 96-well plate. After 1 day, the cells are treated with test compounds at various final concentrations (e.g., 10 nM, 31.6 nM, 100 nM, 316 nM, 1 μM, 3.16 μM, 10 μM, 20 μM, etc.). After a 2-day or 3-day incubation period, 10 μL of CCK-8 solution, which contains the WST-8 dye, is added to each well according to the kit manufacturer's protocol. After incubation for 1-4 hours, the absorbance at 450 nm is measured using a microplate reader. The absorbance at 450 nm measures the amount of WST-8 that is reduced to WST-8 formazan by cellular dehydrogenases, which is directly proportional to the number of living cells. The cytotoxic effect of test compounds at different concentrations is calculated by subtracting from 1 the ratio of absorbance of the compound-treated sample at 450 nm to that of the no-compound, solvent only (DMSO)-treated sample. […] The IC50 values for the cytotoxic effect of each test compound in A549, HepG2, JeKo-1, and/or MDA-MB-231 cells are determined by plotting a dose-response curve to calculate the concentration of test compound that produces half of the maximum cytotoxic effect.
Test [3] concerns JeKo-1. Description: CCK-8 cell viability assay, JeKo-1. The note with it: Homo sapiens; CCK-8, JeKo-1, 2-day or 3-day incubation, cytotoxic effect. As to the method:
(§1) The effect of test compounds on cell viability is determined using the CCK-8 assay kit (Dojindo CK04-1000) according to the following protocol. The human cancer cell lines (e.g., A549, HepG2, JeKo-1, MDA-MB-231, etc.) and non-cancer human cell lines (e.g., HEK-293, HaCaT, etc.), are seeded at 20,000 cells per well in a 96-well plate. After 1 day, the cells are treated with test compounds at various final concentrations (e.g., 10 nM, 31.6 nM, 100 nM, 316 nM, 1 μM, 3.16 μM, 10 μM, 20 μM, etc.). After a 2-day or 3-day incubation period, 10 μL of CCK-8 solution, which contains the WST-8 dye, is added to each well according to the kit manufacturer's protocol. After incubation for 1-4 hours, the absorbance at 450 nm is measured using a microplate reader. The absorbance at 450 nm measures the amount of WST-8 that is reduced to WST-8 formazan by cellular dehydrogenases, which is directly proportional to the number of living cells. The cytotoxic effect of test compounds at different concentrations is calculated by subtracting from 1 the ratio of absorbance of the compound-treated sample at 450 nm to that of the no-compound, solvent only (DMSO)-treated sample. A higher number indicates a greater cytotoxic effect of the test compound on cells (corresponding to a greater reduction in cellular dehydrogenase activity), and vice versa. The IC50 values for the cytotoxic effect of each test compound in A549, HepG2, JeKo-1, and/or MDA-MB-231 cells are determined by plotting a dose-response curve to calculate the concentration of test compound that produces half of the maximum cytotoxic effect. The cytotoxic effect and IC50 of test compounds are also measured in a non-cancer human cell line (e.g., HEK-293, and/or HaCaT) as a proxy for healthy cells to determine the therapeutic window of the test compounds (i.e., the concentration range at which the test compounds selectively kill cancer cells but not healthy cells). The therapeutic index of a test compound is defined herein as its IC50 in HEK-293 cells divided by its IC50 in HepG2 cells.

Test [4] concerns MDA-MB-231. The test can be described thus: CCK-8 cell viability assay, MDA-MB-231. The note with it: Homo sapiens; CCK-8, MDA-MB-231, 2-day or 3-day incubation, cytotoxic effect. As to the method:
as §1

With `Cc1nc(C)c(-c2ccc(=O)n(CC3CCN(c4ncnc5ncccc45)CC3(F)F)n2)s1` (stereo not shown) [6-(2,4-dimethyl-1,3-thiazol-5-yl)-2-(3,3-difluoro-1-pyrido[2,3-d]pyrimidin-4-ylpiperidin-4-yl)methylpyridazin-3-one], the IC50 in test [1] was determined as 1800 nM; in test [2], 300 nM; in test [3], 200 nM; in test [4], 1000 nM.

Broadly, the IC50 is the concentration needed to halve the response being measured.
